The text below walks through data of paper PMC8733953, “Identifying specific matrix metalloproteinase-2-inhibiting peptides through phage display-based subtractive screening” (Turkish Journal of Biology, 2021).

The experiment concerns HUVEC. As to the kind of experiment: Wound-healing (cell migration) assay. The experiment is classed as cell-based, human. Particulars: peptide 100 μM or EDTA 2 mM, 24 h. Here is the method:
For cell culture study, human umbilical vein endothelial cells (HUVECs; C2519A) were purchased from Lonza, Basel, Switzerland. The cells were cultured in endothelial complete media, which is composed of endothelial basal media EBM-2 (CC-3156, Lonza) supplemented with 1% penicillin (10,000 units/mL)- streptomycin (10,000 units/mL) (Gibco, Cat No 15140122) and endothelial cell growth medium 2 (EGM-2) SingleQuots (CC-4176, Lonza, Switzerland) containing growth factors (insulin-like growth factor, human fibroblast growth factor, human epidermal growth factor, and vascular endothelial growth factor), and supplements (ascorbic acid, heparin, hydrocortisone, and fetal bovine serum). Cell passage was carried out three times per week, considering the cell doubling time (Erdag et al., 2011). Cell migration was investigated using a wound-healing assay. HUVEC cells were detached from the cell culture flask using 0.25% trypsin-EDTA and harvested when cell confluence was approximately 70%–80%. After confirming that cell viability was at least 90%, the cells were suspended in complete medium to a density of 1 × 10^5 cells/mL. […] Wound areas were measured using the Gen5 software, and the relative wound area per time-point was calculated based on the wound at 0 h.

Entries after “also recorded” stand apart in the source; their conditions may differ.

Take `O=C(O)CN(CCN(CC(=O)O)CC(=O)O)CC(=O)O` [EDTA]: where the note is “HUVEC monolayer scratched, relative to wound at 0 h, three independent experiments”, the “wound area still uncovered (wound opening area)” value was 82%. Moreover, the “effect on wound healing (in words)” value (HUVEC) is listed as “no significant wound healing was observed; also recorded: twice the inhibition effect”.
